One molecule from patent US20250163122A1, “COMPOSITIONS AND METHODS FOR TREATING AIRWAY MUCUS DYSFUNCTION” (BOARD OF REGENTS, THE UNIVERSITY OF TEXAS SYSTEM, priority 2022, published 2025) can be followed below.

The target of this assay is airway epithelial SNAREs, Syt2, Munc13-2*, Munc18-2, NSF, and αSNAP (Rattus norvegicus, UniProt P29101). The assay is described as follows: Single vesicle content mixing assay, airway system with complete reconstitution. In kind it is biochemical. The settings on record: for Ca2+ independent fusion events / Ca2+ triggered fusion events: Munc13-2* + 10 μM SP9, raw count. As to the method:
FIGS. 3A-3G show the effect of stapled peptides on fusion with complete airway system reconstitution according to certain aspects of this disclosure. […] PM: vesicles with reconstituted Stx3 and SNAP-23 that mimic the plasma membrane of epithelial cells; SM: vesicles with reconstituted Stx3/Munc18-2 complex; SG: mucin-containing secretory granules. 0.5 μM Munc13-2* fragment was added after formation of the SM vesicles and during all subsequent stages. 10 μM stapled peptide was added together with SG vesicles and was present during all subsequent stages. […] The fusion probabilities and amplitudes were normalized to the number of analyzed SG—airway PM vesicle pairs (see TABLE 4). FIGS. 3C, 3E, 3F, and 3G show means±SEM for multiple independent repeat experiments (see TABLE 2).
For single vesicle content mixing assay, the lipid composition of the SV, SG, VAMP2, or VAMP8 vesicles was phosphatidylcholine (PC) (48%), phosphatidylethanolamine (PE) (20%), phosphatidylserine (PS) (12%), and cholesterol (20%); for both the neuronal and airway PM vesicles the lipid composition was Brain Total Lipid Extract supplemented 3.5 mol % PIP2, and 0.1 mol % biotinylated phosphatidylethanolamine (PE).
The reconstitution method for neuronal PM and SV vesicles was described in detail previously (see Lai et al., 2017; Kyoung et al., 2011; and Lai et al., 2014). The same methods were used for airway PM, SG, VAMP2, and VAMP8 vesicles. Dried lipid films were dissolved in 110 mM OG buffer containing purified proteins at protein-to-lipid ratios of 1:200 for VAMP2 and Stx1A for SV and neuronal PM vesicles, respectively (or 1:200 for VAMP8 and Stx3 for SG and airway PM vesicles, respectively), and 1:800 for Syt1 for SV vesicles (or 1:1200 for Syt2 for SG vesicles).
A 3-5 fold excess of SNAP-25A or SNAP-23 (with respect to Stx1A or Stx3) and 3.5 mol % PIP2 were added to the protein-lipid mixture for neuronal or airway PM vesicles. […] For the preparation of SV, SG, VAMP2, or VAMP8 vesicles for single vesicle content mixing assay, 50 mM sulforhodamine B (Thermo Fisher Scientific) was added to the protein-lipid mixture. The vesicles subsequently formed during size exclusion chromatography using a Sepharose CL-4B column, packed under near constant pressure by gravity with a peristaltic pump (GE Healthcare) in a 5.5 ml column with a ˜5 ml bed volume that was equilibrated with buffer V (20 mM HEPES, pH 7.4, 90 mM NaCl) supplemented with 20 μM EGTA and 0.1% 2-mercaptoethanol. The eluent was subjected to dialysis into 21 of detergent-free buffer V supplemented with 20 μM EGTA, 0.1% 2-mercaptoethanol, 5 g of Bio-beads SM2 (Bio-Rad) and 0.8 g/L Chelex 100 resin (Bio-Rad). After 4 hours, the buffer was exchanged with 21 of fresh buffer V supplemented with 20 μM EGTA, 0.1% 2-mercaptoethanol and Bio-beads, and the dialysis continued for another 12 h (overnight). […] For ensemble lipid mixing assay, the reconstitution method is the same as that for the single vesicle content mixing assay, except that 50 mM sulforhodamine B was omitted for all the steps.
Single vesicle content mixing experiments. All single vesicle fusion and single molecule experiments were performed on a prism-type total internal reflection fluorescence (TIRF) microscope using 532 nm (green) laser (CrystaLaser) excitation. Two observation channels were created by a 640 nm single-edge dichroic beamsplitter (FF640-FDi01-25x36, Shemrock): one channel was used for the fluorescence emission intensity of the content dyes and the other channel for that of the Cy5 dye that are part of the injected Ca^2+-solution. The two channels were recorded on two adjacent rectangular areas (45×90 m^2) of a charge-coupled device (CCD) camera (iXon+DV 897E, Andor Technology). The imaging data were recorded with the smCamera software developed by Taekjip Ha, Johns Hopkins University, Baltimore. […]

Where a SMILES comes first, the peptide text is derived from it. Bridges are numbered along the chain shown (N, C = ends). [ ]: non-standard residue; d: D form. S5 = C=CCCC[C@](C)(N)C(=O)O

airway epithelial SNAREs, Syt2, Munc13-2*, Munc18-2, NSF, and αSNAP, sequence (P29101 whole entry, the tested form may be a part): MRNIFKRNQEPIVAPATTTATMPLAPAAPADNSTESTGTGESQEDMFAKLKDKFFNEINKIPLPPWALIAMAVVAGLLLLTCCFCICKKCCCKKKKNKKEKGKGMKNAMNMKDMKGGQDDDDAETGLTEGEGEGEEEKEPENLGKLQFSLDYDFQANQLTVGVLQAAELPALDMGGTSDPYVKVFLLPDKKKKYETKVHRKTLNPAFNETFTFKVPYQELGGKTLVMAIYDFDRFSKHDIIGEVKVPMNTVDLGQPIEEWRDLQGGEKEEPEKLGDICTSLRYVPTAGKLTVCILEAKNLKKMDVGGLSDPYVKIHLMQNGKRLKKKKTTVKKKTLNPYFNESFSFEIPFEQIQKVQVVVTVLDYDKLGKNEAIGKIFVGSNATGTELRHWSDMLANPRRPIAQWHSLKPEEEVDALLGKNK

Consider `CC[C@H](C)[C@H](NC(=O)[C@]1(C)CCCC=CCCC[C@](C)(NC(=O)[C@H](CCC(=O)O)NC(=O)[C@H](CCC(=O)O)NC(C)=O)C(=O)N[C@@H](CCCCN)C(=O)N[C@@H](CC(=O)O)C(=O)N[C@@H](C)C(=O)N1)C(=O)N[C@@H](CCCNC(=N)N)C(=O)N[C@@]1(C)CCCC=CCCC[C@@](C)(C(=O)N[C@@H](CC(=O)O)C(=O)N[C@@H](CCC(=O)O)C(=O)N[C@@H](CCC(N)=O)C(=O)N[C@@H](CS)C(N)=O)NC(=O)[C@H](CCSC)NC(=O)[C@H](C(C)C)NC(=O)[C@H](CC(C)C)NC1=O` [SP9, Ac-EE(S5)KDA(S5)IR(S5)LVM(S5)DEQC-amide] (Ac-EE[S5]KDA[S5]IR[S5]LVM[S5]DEQC-NH2; staple 3-7, 10-14), for which, where the note is “10 μM peptide”, the “effect on Ca2+-independent fusion probability” value is listed as “only moderately reduced”. In addition, for the setting “10 μM peptide”, the “effect on vesicle association” value was “no effect”. In addition, under “10 μM peptide, both 50 μM and 500 μM Ca2+”, the “effect on Ca2+-triggered fusion amplitude, cumulative fusion probability and synchronization” value is listed as “strongly inhibited”. Besides, the “Ca2+ independent fusion events” value by setting is: (50 μM Ca2+ experiment) 23; (500 μM Ca2+ experiment) 41. In addition, the “Ca2+ triggered fusion events” value runs as follows: (50 μM Ca2+) 89; (500 μM Ca2+) 106.
